# Data: patent US9724544B2, “Vitamin D promoting sunscreen” (priority 2009, dated 2017)
# Test system: primary human keratinocytes
# Assay: not given
# Settings: De Haes et al. 2005; cited from earlier work
row,Compound,protection against UVB-induced DNA damage
1,"C=C1/C(=C\C=C2/CCC[C@]3(C)[C@@H]([C@H](C)CCCC(C)(C)O)CC[C@@H]23)C[C@@H](O)C[C@@H]1O [1,25(OH)2D3, 1,25-dihydroxyvitamin D3]",protects

# Test system: not listed separately
# Assay: UV absorption spectra (absorbance range, maxima, critical wavelength) of UV filters and other ingredients
# Assay type: physicochemical
# Settings: over time under the sun
row,Compound,ability to absorb radiation in the 290 to 315 nm range over time
1,"COc1ccc(C(=O)CC(=O)c2ccc(C(C)(C)C)cc2)cc1 [Avobenzone, 4-tert-butyl-4′-methoxy-dibenzoylmethane]",increases over time

# Test system: not given
# Assay: not given
# Settings: approximately 295 to 315 nm; cited from earlier work
row,Compound,absorption in the vitamin D producing range
1,"Cc1ccc(C=C2C(=O)C3(C)CCC2C3(C)C)cc1 (centres unmarked) [4-Methylbenzylidene camphor, 3-(4-methylbenzyliden)camphor]",high percentage
2,COc1ccc(C=CC(=O)OCCC(C)C)cc1 [Isoamyl p-methoxycinnamate],high percentage
3,"CCCCC(CC)COC(=O)c1ccc(Nc2nc(Nc3ccc(C(=O)NC(C)(C)C)cc3)nc(Nc3ccc(C(=O)OCC(CC)CCCC)cc3)n2)cc1 (centres unmarked) [Iscotrizinol, diethylhexyl butamido triazone]",high percentage
4,CCCCC(CC)COC(=O)c1ccc(Nc2nc(Nc3ccc(C(=O)OCC(CC)CCCC)cc3)nc(Nc3ccc(C(=O)OCC(CC)CCCC)cc3)n2)cc1 (centres unmarked) [Ethylhexyl Triazone],high percentage
5,"CCCCCCOC(=O)c1ccccc1C(=O)c1ccc(N(CC)CC)cc1O [Uvinul A Plus, diethylamino hydroxybenzoyl hexyl benzoate]",relative lack of absorption
6,CCCCCCCCOc1ccc(C(=O)c2ccccc2)c(O)c1 [2-Hydroxy-4-(Octyloxy)Benzophenone],high percentage
7,"COc1ccc(C(=O)c2ccc(C)cc2)c(O)c1 [Mexenon, 2-hydroxy-4-methoxy-4′-methyl-benzophenone]",minimal to moderate
8,"Nc1ccc(C(=O)OCC(O)CO)cc1 (centres unmarked) [Glyceryl Aminobenzoate, glyceryl 1-(4-aminobenzoate)]",high percentage
9,"CC(=O)C=CC=C1C2CCC(C2)C1(C)C (centres unmarked) [Digalloyl trioleate, 5-(3,3-Dimethyl 2 norbornyliden)-3penten-2-one]",high percentage
10,"COc1ccc(C(=O)c2ccccc2)c(O)c1 [Oxybenzone, 2-hydroxy-4-methoxybenzophenone]",minimal to moderate
11,"CC1CC(OC(=O)c2ccccc2O)CC(C)(C)C1 (centres unmarked) [Homosalate, 3,3,5-trimethylcyclohexyl salicylate]",minimal to moderate
12,"CCCCC(CC)COC(=O)c1ccccc1O (centres unmarked) [Octisalate, 2-ethylhexyl salicylate]",minimal to moderate
13,"COc1ccc(C(=O)c2ccc(OC)cc2O)c(O)c1 [2,2′-Dihydroxy-4,4′-dimethoxybenzophenone]",high percentage
14,"COc1ccc(C(=O)CC(=O)c2ccc(C(C)(C)C)cc2)cc1 [Avobenzone, 4-tert-butyl-4′-methoxy-dibenzoylmethane]",relative lack of absorption
15,"CCCCC(CC)COC(=O)c1ccc(N(C)C)cc1 (centres unmarked) [Padimate-0, 2-ethylhexyl 4-dimethylaminobenzoate]",high percentage
16,"O=C(c1ccc(O)cc1O)c1ccc(O)cc1O [2,2^1,4,4′-Tetrahydroxybenzophenone]",high percentage
17,"CCOCCOC(=O)C=Cc1ccc(OC)cc1 [Cinoxate, 2-ethoxyethyl p-methoxycinnamate]",high percentage
18,"O=S(=O)([O-])c1cc(S(=O)(=O)O)cc2[nH]c(-c3ccc(-c4nc5c(S(=O)(=O)[O-])cc(S(=O)(=O)O)cc5[nH]4)cc3)nc12.[Na+].[Na+] [Bisdisulizole disodium, disodium phenyl dibenzimidazole tetrasulfonate]",relative lack of absorption
19,4-Bis(polyethoxy)para-aminobenzoic acid polyethoxyethyl ester [PEG-25 PABA],minimal absorption
20,"COc1cc(O)c(C(=O)c2ccccc2)cc1S(=O)(=O)O [Sulisobenzone, 2-hydroxy-4-methoxybenzophenone-5-sulfonic acid]",minimal to somewhat moderate
21,"O=C(c1ccccc1)c1ccc(O)cc1O [2,4-Dihydroxybenzophenone]",high percentage
22,"CCCCC(CC)COC(=O)C(C#N)=C(c1ccccc1)c1ccccc1 (stereo not drawn) [Octocrylene, 2-ethylhexyl alpha-cyano-beta-phenylcinnamate]",minimal to moderate
23,"CCCCC(CC)COc1ccc(-c2nc(-c3ccc(OC)cc3)nc(-c3ccc(OCC(CC)CCCC)cc3O)n2)c(O)c1 (centres unmarked) [Bemotrizinol, bis-ethylhexyloxyphenol methoxyphenyl triazine]",high percentage
24,"Nc1ccc(C(=O)O)cc1 [Aminobenzoic acid, 4-aminobenzoic acid]",high percentage
25,"CCCCCOC(=O)c1ccc(N(C)C)cc1 [Padimate-A, amyl p-dimethylaminobenzoate]",high percentage

# Same assay, conditions: dissolved in alcohol; cited from earlier work
row,Compound,maximum absorbance [nm]
1,"Nc1ccc(C(=O)O)cc1 [Aminobenzoic acid, 4-aminobenzoic acid]",289

# Same assay, conditions: dissolved in water; cited from earlier work
row,Compound,maximum absorbance [nm]
1,"Nc1ccc(C(=O)O)cc1 [Aminobenzoic acid, 4-aminobenzoic acid]",278
